From patent publication US9456971B2, “Moisturizer and cosmetic agent containing same” (AJINOMOTO CO., INC., priority 2012, dated 2016)

Columns and labels:
Assay type in all cases: physicochemical
[1] = Evaluation of moisturizer: hygroscopicity; conditions: A(%)=([2]−[1])/[1]×100; vacuum-dried sample allowed to absorb moisture at 65% RH, 25° C. for 14 days
Method: (§1) To study the hygroscopicity and water retention ability of moisturizers, the following experiment was performed.
Decanoyl proline sodium obtained in Synthetic Example 2, betaine (“aminocoat” manufactured by Asahi Kasei Corporation), sodium lactate (manufactured by Wako), sodium pyrrolidonecarboxylate (“AJIDEW” NL-50 manufactured by Ajinomoto Co., Inc.), glycerol (“concentrated glycerin” manufactured by Kao Corporation), and sorbitol (manufactured by Kao Corporation) were each dried under vacuum. The moisture level of the samples was measured by Karl Fischer moisture meter, the amount of water was determined, and the weight other than the moisture level was calculated ([1]). Thereafter, the samples were allowed to absorb moisture under the conditions of 65% RH, 25° C. for 14 days, and the weight was measured ([2]). Thereafter, the samples were dried under the conditions of 35% RH, 25° C. for 14 days, and the weight was measured ([3]).
• A(%)=([2]−[1])/[1]×100 was calculated and the samples were evaluated according to the following criteria. • ⊙: value of A is not less than 15% • ◯: value of A is not less than 12% and less than 15% • Δ: value of A is not less than 10% and less than 12% • ×: value of A is less than 10% [Water Retention Ability] • R(%)=[3]/[2]×100 was calculated and the samples were evaluated according to the following criteria. • ⊙: value of R is not less than 80% • ◯: value of R is not less than 60% and less than 80% • Δ: value of R is not less than 40% and less than 60% • ×: value of R is less than 40%

[2] = Evaluation of moisturizer: water retention ability; conditions: R(%)=[3]/[2]×100; after moisture absorption, dried at 35% RH, 25° C. for 14 days
Method: as §1
Decanoyl proline sodium obtained in Synthetic Example 2, betaine (“aminocoat” manufactured by Asahi Kasei Corporation), sodium lactate (manufactured by Wako), sodium pyrrolidonecarboxylate (“AJIDEW” NL-50 manufactured by Ajinomoto Co., Inc.), glycerol (“concentrated glycerin” manufactured by Kao Corporation), and sorbitol (manufactured by Kao Corporation) were each dried under vacuum. The moisture level of the samples was measured by Karl Fischer moisture meter, the amount of water was determined, and the weight other than the moisture level was calculated ([1]). Thereafter, the samples were allowed to absorb moisture under the conditions of 65% RH, 25° C. for 14 days, and the weight was measured ([2]). Thereafter, the samples were dried under the conditions of 35% RH, 25° C. for 14 days, and the weight was measured ([3]). […]

[3] = Stability against decomposition (acceleration test, HPLC); conditions: 30.0 wt % in water, 70° C. for 22 days
Method: Solutions of the compound of Synthetic Example 2 (decanoyl proline Na, 30.0 wt %) in water with or without addition of etidronate to 0.1 wt % were prepared, and they were subjected to an acceleration test at 70° C. for 22 days. The decomposition rate of the compound of Synthetic Example 2 in each composition was measured using HPLC (20A manufactured by Shimadzu Corporation).

SMILES	hygroscopicity [1]	decomposition rate of decanoyl proline Na ([3]; etidronate added to 0.1 wt %)	decomposition rate of decanoyl proline Na ([3]; etidronate not added)	water retention ability [2]
O=C1CCC(C(=O)[O-])N1.[Na+] (stereo not drawn) [compound 3, sodium pyrrolidonecarboxylate]	⊙ (value of A is not less than 15%)	–	–	–
CC(O)C(=O)[O-].[Na+] (stereo not drawn) [compound 2, sodium lactate]	⊙ (value of A is not less than 15%)	–	–	–

Now from value to compound, other results behind:

hygroscopicity [1]	decomposition rate of decanoyl proline Na ([3]; etidronate added to 0.1 wt %)	decomposition rate of decanoyl proline Na ([3]; etidronate not added)	SMILES	water retention ability [2]
⊙ (value of A is not less than 15%)	–	–	OCC(O)CO [compound 4, glycerol]	–
⊙ (value of A is not less than 15%)	–	–	C[N+](C)(C)CC(=O)O [compound 1, betaine]	Δ (value of R is not less than 40% and less than 60%)
⊙ (value of A is not less than 15%)	0.8%	2.4%	CCCCCCCCCC(=O)N1CCC[C@H]1C(=O)[O-].[Na+] [Example 1, decanoyl proline sodium salt]	⊙ (value of R is not less than 80%)
